Literature values in patent US4826688A, “Controlled absorption pharmaceutical formulation” (501 Elan Corporation PLC., priority 1985, dated 1989).

SMILES | absorption from the gastro-intestinal tract (in words) | peak plasma concentrations are reached (quinidine sulphate, usual) | excretion in the urine (in words)
C=C[C@H]1C[N@@]2CC[C@H]1C[C@@H]2[C@@H](O)c1ccnc2ccc(OC)cc12 [Quinidine sulphate] | rapidly absorbed | about two | –
C=C[C@H]1C[N@@]2CC[C@H]1C[C@@H]2[C@@H](O)c1ccnc2ccc(OC)cc12 [Quinidine, (+)-α-(6-methoxyquinolin-4-yl)-α-(5-vinylquinuclidin-2-yl)methanol] | – | – | almost entirely excreted in the urine
